Laboratory results taken from publication PMC6469224, “Tuning the properties of tris(hydroxypyridinone) ligands: efficient ^68Ga chelators for PET imaging” (Dalton Transactions (Cambridge, England : 2003), 2019).
Read-outs that look alike come from different tables or passages of the source.

Experiments:
[1] = Spectrophotometric determination of conditional formation constants, Fe^3+ complexes; assay type: binding
Description: (§1) The THP^Me and THP^H acid dissociation and conditional formation constants for their Ga^3+ and Fe^3+ complexes were investigated by spectrophotometric measurements. pKa and pM values (defined as –log[M^3+] when [ligand]total = 10 μM, [metal]total = 1 μM and pH = 7.4) are reported in Table 2. A full list of the measured conditional formation constants is provided in the ESI (Tables S1–S3 ^†), together with speciation plots calculated for the pH range of the titration. The pKa values for THP chelators are better described as intrinsic protonation constants since they represent the average pKa values of the three hydroxypyridinone units, which could not be distinguished by UV spectrophotometric measurements.[45] The first intrinsic pKa is attributed to the carbonyl group of the HP unit, and the second to the adjacent hydroxyl group. For THP^H a third intrinsic protonation constant, pKa3, associated with deprotonation of the N^1–H group in the pyridinone ring, exists outside the pH range used. The value of pKa3 was estimated to be 13 from the spectral change of the [Fe(THP^H)] complex in the pH 10–12.5 range. The measured protonation constants for THP^H are lower than those measured for deferiprone, but slightly higher than those for THP^Me (that is, THP^Me is slightly more acidic than THP^H).
(§2) The automated titration system consists of a Metrohm 765 Dosimat autoburette, a Mettler Toledo MP230 pH meter with SENTEK pH electrode (P11), and an HP 8453 UV-visible spectrophotometer with a Hellem quartz flow cuvette, with circulation driven by a Gilson Mini-plus #3 pump (speed capability 20 mL min^–1). A potassium chloride electrolyte solution (0.1 M) was used to maintain the ionic strength. The temperature of the test solutions was maintained in a thermostatic jacketed titration vessel at 25 ± 0.1 °C, using a Fisherbrand Isotemp water bath. […]
(§3) The automated titration adopted the following strategy: the pH of a solution was increased in increments of 0.1 pH unit by the addition of potassium hydroxide solution (0.1 M) from the autoburette. The pH readings were judged stable if they varied by less than 0.01 pH unit after a pre-set incubation period. […] Titration data were analysed with the HypSpec2014 program[48],[49] […] The fitting spectra range for iron complexes was 400–700 nm while that for gallium complexes was 250–350 nm. pH values higher than 11.3 (outside the pH range in which electrode measurements are considered accurate) were neglected and re-calculated from the added KOH quantity (using “no pH” mode within the HypSpec2014 program). […] Metal affinities of compounds in this study were determined in competition with the metal hydrolysis species in a solution at a high pH (titrated up to pH 12.5). […]

[2] = Spectrophotometric titration, acid dissociation constants; assay type: physicochemical
Description: as §1
The automated titration system consists of a Metrohm 765 Dosimat autoburette, a Mettler Toledo MP230 pH meter with SENTEK pH electrode (P11), and an HP 8453 UV-visible spectrophotometer with a Hellem quartz flow cuvette, with circulation driven by a Gilson Mini-plus #3 pump (speed capability 20 mL min^–1). A potassium chloride electrolyte solution (0.1 M) was used to maintain the ionic strength. The temperature of the test solutions was maintained in a thermostatic jacketed titration vessel at 25 ± 0.1 °C, using a Fisherbrand Isotemp water bath. The pH electrodes were calibrated using the software GLEE[47] with data obtained by titrating a volumetric standard HCl (0.1 M) in KCl (0.1 M) with KOH (0.1 M) under an atmosphere of argon. Analytical grade reagent materials were used in the preparation of all solutions. The solution under investigation was stirred vigorously during the experiment. For pKa determinations, a cuvette path length of 10 mm was used, while for metal stability constants determinations, a cuvette path length of 50 mm was used (experimental concentration was ca. 40 μM for iron complexes and ca. 10 μM for gallium complexes). All instruments were interfaced to a computer and controlled by an in-house program.
The automated titration adopted the following strategy: the pH of a solution was increased in increments of 0.1 pH unit by the addition of potassium hydroxide solution (0.1 M) from the autoburette. The pH readings were judged stable if they varied by less than 0.01 pH unit after a pre-set incubation period. […] The cycle was repeated until the predefined end point pH value was achieved. Titration data were analysed with the HypSpec2014 program[48],[49] […] The fitting spectra range for iron complexes was 400–700 nm while that for gallium complexes was 250–350 nm. pH values higher than 11.3 (outside the pH range in which electrode measurements are considered accurate) were neglected and re-calculated from the added KOH quantity (using “no pH” mode within the HypSpec2014 program). […] Metal affinities of compounds in this study were determined in competition with the metal hydrolysis species in a solution at a high pH (titrated up to pH 12.5). […]

[3] = Spectrophotometric determination of conditional formation constants, Ga^3+ complexes; assay type: binding
Description: as §1, §2, §3

[4] = cited from earlier work
[5] = cited from earlier work; remark: listed apart in the source
mouse = test: In vivo ^68Ga scavenging: acetate-buffered ^68Ga injected, then chelator; PET/CT and urine HPLC; conditions: female BALB/c mouse, THPMe at 45 minutes
Description: The ability of THP^H to scavenge gallium in vivo was also investigated. […] This scavenging ability, shared with THP^Me (ESI, Fig. S8 ^†), reflects the rapid complexation kinetics and the extraordinary ability to transchelate gallium (which is known to bind rapidly and almost completely to transferrin when intravenously injected[44]) rapidly in the biological milieu.
All in vivo experiments were carried out in accordance with British Home Office regulations governing animal experimentation and complied with guidelines on responsibility in the use of animals in bioscience research of the U.K. Research Councils and Medical Research Charities, under U.K. Home Office project and personal licences. […] Respiration rate and bed temperature were monitored throughout. […] All reconstructed datasets were analysed using VivoQuant 1.21 software (inviCRO), which enables the co-registration of PET and CT images and the delineation of regions of interest (ROIs) for quantification of activity in specific organs. […] Urine was collected and analysed by reversed-phase HPLC (method 3).
An E&Z generator was eluted with 5 mL of pure HCl 0.1 M (Fluka analytical) in five 1 mL fractions and their activity measured by a Capintec radionuclide dose calibrator. […]
Quantitative radiolabelling was obtained for all examined concentrations. […]

[6] = M3+ + 2 L− ⇄ [ML2]+, repeated as control
[7] = M3+ + 3 L− ⇄ [ML3], repeated as control
[8] = M3+ + L− ⇄ [ML]2+, repeated as control
[9] = –log[M^3+] at [M]total = 1 μM, [L]total = 10 μM, pH = 7.4
[10] = 0.1 M KCl electrolyte solution, intrinsic pKa for THP ligands (carbonyl group of HP unit), 25 °C, 0.1 M KCl, read-out: pKa1

Question: Which “Log β [FeL]2+” value [1, 6] does the source give for `Cc1c(O)c(=O)ccn1C` [Deferiprone] here?
Answer: The value was 27.5.

Question: What about the “Log β [FeL3]” value [1, 7] of the same compound?
Answer: The value was 37.5.

Question: What about the “Log β [FeL]2+” value [1, 8] of the same compound?
Answer: Its value is 15.0.

Question: What about the pFe [1, 9] of the same compound?
Answer: Its pFe is 20.8.

Question: And the pKa [2, 10]?
Answer: The pKa was 3.5.

Question: And the pKa ([2]; intrinsic pKa for THP ligands (hydroxyl group), 25 °C, 0.1 M KCl, read-out: pKa2)?
Answer: The pKa was 9.8.

Question: And the “Log β [GaL]2+” value [3, 6]?
Answer: Its value is 27.0.

Question: What about the “Log β [GaL3]” value [3, 7] of the same compound?
Answer: The value was 37.4.

Question: And the “Log β [GaL]2+” value [3, 8]?
Answer: Its value is 14.4.

Question: And the pGa [3, 9]?
Answer: The pGa was 20.7.

Question: What does the source list for `O=C(O)CN(CCN(CC(=O)O)Cc1ccccc1O)Cc1ccccc1O` [HBED, N,N-bis(2-hydroxybenzyl)ethylenediamine-N,N-diacetic acid]?
Answer: log KGa [4]: 37.73; log KFe [5]: 36.74

Question: Which results are given for `CC(=O)NC(CCC(=O)NCc1[nH]c(C)cc(=O)c1O)(CCC(=O)NCc1[nH]c(C)cc(=O)c1O)CCC(=O)NCc1[nH]c(C)cc(=O)c1O` [THP^H]?
Answer: pKa [2, 10]: 3.2; pKa ([2]; 0.1 M KCl electrolyte solution, intrinsic pKa for THP ligands (hydroxyl group), 25 °C, 0.1 M KCl, read-out: pKa2): 9.4; pKa ([2]; 0.1 M KCl electrolyte solution, pH 10, N^1–H deprotonation, estimated from spectral change of [Fe(THP^H)] in pH 10–12.5, read-out: pKa3): ~13

Question: With `CC(=O)NC(CCC(=O)NCc1c(O)c(=O)cc(C)n1C)(CCC(=O)NCc1c(O)c(=O)cc(C)n1C)CCC(=O)NCc1c(O)c(=O)cc(C)n1C` [THP^Me, tris(1,6-dimethyl-3-hydroxypyridin-4-one)] as the compound, how does the “In vivo ^68Ga binding and blood clearance after injection of the chelator” value (mouse) read?
Answer: Its value is “able to bind 68Ga in vivo”.
